From US7465789B2, “Adenosine receptor” (Schering Corporation, priority 2001, dated 2008)

Columns and labels:
SP166 [1] = biological target: T1, SP166 (Homo sapiens, UniProt Q9BXA5, L244P); assay: FLIPR intracellular Ca++ flux assay in BAF/3 cells stably transfected with SP166; format: cell-based
T1 construct: expressed in transfected cells; host or cells: BAF/3 (murine IL-3 dependent B-cell line), retroviral transduction, G418 selection
T1 sequence (Q9BXA5 1-334 L244P): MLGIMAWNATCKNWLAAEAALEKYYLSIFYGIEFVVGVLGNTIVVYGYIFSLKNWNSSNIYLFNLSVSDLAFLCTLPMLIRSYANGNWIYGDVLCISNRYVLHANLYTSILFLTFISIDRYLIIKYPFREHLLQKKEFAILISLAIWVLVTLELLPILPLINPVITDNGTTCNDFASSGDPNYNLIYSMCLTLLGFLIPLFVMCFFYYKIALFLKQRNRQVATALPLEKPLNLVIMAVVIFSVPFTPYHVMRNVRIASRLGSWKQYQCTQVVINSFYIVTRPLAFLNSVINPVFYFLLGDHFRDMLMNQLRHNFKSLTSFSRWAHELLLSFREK

SP166 [2] = biological target: T1, SP166; assay: Radioligand saturation and competition binding assay with [3H]-NECA on membranes of cells transfected with SP166; details: radioligand saturation and competition assays
Protocol: Membrane preparation: Cells transfected with SP166 as described above were harvested by incubating in 5 mM EDTA/phosphate-buffered saline followed by repeated pipetting. The cells were centrifuged 5 min at 1000×g. The EDTA/PBS was decanted and an equal volume of ice-cold 50 mM Tris-HCl, pH 7.5, was added and cells were broken up with a Polytron (PT10 tip, setting 5, 30 sec). Nuclei and unbroken cells were sedimented at 1000×g for 10 min and then the supernatant was centrifuged at 50,000×g for 10 min. The supernatant was decanted, the pellet was resuspended by Polytron, a sample was taken for protein assay (bicinchoninic acid, Pierce), and the tissue was again centrifuged at 50,000×g. Pellets were stored frozen at […].
Binding assay: For saturation binding, four concentrations of [^3H]-NECA were incubated without and with 10^−5 M adenosine in triplicate with 50 ug of membrane protein in a total volume of 200 μl of 50 mM Tris-HCl, pH 7.5, for 30 min at 30° C. Samples were filtered on GF/B filters and washed thrice with 2 ml of cold Tris buffer. Filters were dried in a microwave oven, impregnated with Meltilex wax scintillant, and counted at 45% efficiency. For competition binding assays, five concentrations of compounds were incubated in triplicate with 18 nM [^3H]NECA and 70 μg of membrane protein under the conditions described above. […]

mock transfected cells = assay: FLIPR intracellular Ca++ flux assay in mock transfected cells
Protocol: To generate stable transfectants, full-length expression constructs were made in the murine IL-3 dependent B-cell line, BAF/3. Human SP166 was cloned into the retroviral vector, pMX-CD8-myc with 5′ EcoR1 and 3′ Not1 sites. […] To generate high-titer retroviral stock, the ecotropic packaging line BOSC 23 was used as described (Onishi, et al. 1996). Culture supernatants from these cells, containing viral particles, were used to infect BAF/3 cells. Transfectants underwent selection with 1 mg/ml G418 and were further enriched by fluorescence-activated cell sorting and single cell cloning using anti-myc antibody to the N-terminal myc tag.
For the assay, growth media was removed and replaced with medium containing RPMI, 10% FBS, and 1 mM Fluo3-AM (Sigma) (dissolved in 10% pluronic acid in DMSO). […] 50,000 cells in a volume of 100 ml were added to the plates, and the plates were placed into a Fluorescent Imaging Plate Reader (FLIPR, Molecular Devices) equilibrated to 37° C. In the FLIPR, changes in intracellular [Ca^++] levels were measured by excitation of Fluo3 fluorescence at 488 nm while fluorescence output was monitored at 500-560 nm. Fluorescence was monitored once per second for 1 minute, and every 6 seconds for 2 minutes thereafter. […] Values extracted for data analysis represented the maximal fluorescence value minus the minimal fluorescence value detected following, the drug addition. […]

Compound | activation of SP166 (change in intracellular Ca++) (SP166 [1]; naturally occurring nucleotides and nucleosides examined, SP166-transfected BAF/3 cells) | binding to the cloned receptor (SP166 [2]) | activation by adenosine in mock transfected cells (mock transfected cells) | activation of SP166 by adenosine analogs (SP166 [1])
Nc1ncnc2c1ncn2[C@@H]1O[C@H](CO)[C@@H](O)[C@H]1O [adenosine] | specifically activated | able to bind | not observed | –
(R)α-methyladenosine | – | – | – | able to activate
(S)α-methyladenosine | – | – | – | inactive
Nα-methyladenosine | – | – | – | able to activate
